# Legend:
# [1] = biological target: T1, Ypk9 (Thermochaetoides thermophila, UniProt G0S7G9); test: ATPase activity, malachite green phosphate release; type: biochemical; conditions: 5 mM MgCl2, pH 7.0, 37 °C
# T1 construct: gene CTHT_0028100; full length, introns removed; N- or C-terminal TEV-G4S-GFP-His10 fusion, made in S. cerevisiae PAP1500; purified in DDM/CHS (ATPase assay) or reconstituted in nanodiscs (cryo-EM)
# [2] = biological target: T1, Ypk9; test: ATPase activity, malachite green phosphate release; type: biochemical; conditions: 6 mM SPM, 1 mM ATP, 5 mM MgCl2, 100 mM KCl, pH 7.0, 37 °C, DDM/CHS
# [3] = biological target: T1, Ypk9; test: cryo-EM structure (E2.Pi-SPM […] Å; E2.Pi-AlF/SPM […] Å; E2P* […] Å); type: binding; conditions: 1 mM SPM with 1 mM MgCl2, AlF or BeF3−; nanodiscs; luminal cleft between TM2, 4 and 6
# T1 sequence (G0S7G9 entry or part of it): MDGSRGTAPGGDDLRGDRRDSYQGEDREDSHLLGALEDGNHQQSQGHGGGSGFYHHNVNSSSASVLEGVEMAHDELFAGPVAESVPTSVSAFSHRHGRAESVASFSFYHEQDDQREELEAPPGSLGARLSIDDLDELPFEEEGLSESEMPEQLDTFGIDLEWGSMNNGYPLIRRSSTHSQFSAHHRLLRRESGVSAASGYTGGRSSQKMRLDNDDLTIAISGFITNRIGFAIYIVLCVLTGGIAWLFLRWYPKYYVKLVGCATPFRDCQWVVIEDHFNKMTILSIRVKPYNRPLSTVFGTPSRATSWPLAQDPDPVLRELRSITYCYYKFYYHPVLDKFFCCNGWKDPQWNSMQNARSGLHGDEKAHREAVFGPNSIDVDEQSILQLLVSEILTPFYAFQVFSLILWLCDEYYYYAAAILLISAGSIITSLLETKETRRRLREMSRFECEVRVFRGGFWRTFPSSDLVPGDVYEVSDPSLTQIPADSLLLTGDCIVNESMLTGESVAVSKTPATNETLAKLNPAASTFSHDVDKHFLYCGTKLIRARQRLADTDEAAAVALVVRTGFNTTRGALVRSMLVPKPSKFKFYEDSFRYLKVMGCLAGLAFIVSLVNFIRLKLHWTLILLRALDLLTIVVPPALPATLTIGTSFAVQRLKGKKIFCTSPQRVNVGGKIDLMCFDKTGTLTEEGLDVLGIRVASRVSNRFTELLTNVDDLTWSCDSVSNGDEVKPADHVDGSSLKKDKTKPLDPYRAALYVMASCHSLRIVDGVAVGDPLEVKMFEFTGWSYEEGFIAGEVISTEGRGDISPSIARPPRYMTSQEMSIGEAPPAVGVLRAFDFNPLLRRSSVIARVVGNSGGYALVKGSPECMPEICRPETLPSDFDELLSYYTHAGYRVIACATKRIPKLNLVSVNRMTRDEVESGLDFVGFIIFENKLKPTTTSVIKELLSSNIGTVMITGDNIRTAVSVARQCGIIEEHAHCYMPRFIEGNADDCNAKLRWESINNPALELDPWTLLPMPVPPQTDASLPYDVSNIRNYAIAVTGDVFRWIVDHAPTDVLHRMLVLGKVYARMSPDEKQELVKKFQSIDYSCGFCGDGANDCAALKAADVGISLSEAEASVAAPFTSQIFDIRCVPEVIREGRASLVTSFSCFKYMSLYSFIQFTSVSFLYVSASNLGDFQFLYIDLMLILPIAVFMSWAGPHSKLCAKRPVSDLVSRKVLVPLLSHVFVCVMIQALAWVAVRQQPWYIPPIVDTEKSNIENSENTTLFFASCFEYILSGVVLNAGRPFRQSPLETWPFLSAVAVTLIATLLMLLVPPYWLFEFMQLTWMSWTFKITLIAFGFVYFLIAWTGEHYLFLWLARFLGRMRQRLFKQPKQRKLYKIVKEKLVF
structure (smiles),measurement,setting,value
[F][Be-]([F])[F] [BeF3−],inhibition at 1 mM,"[1]; 1 mM BeF3−, 1 mM ATP, phosphate analogue",inhibited by the inhibitors BeF3^− and NaVO4^−
[O]=[V]([OH])([OH])[OH] [NaVO4−],inhibition at 1 mM,"[1]; 1 mM NaVO4, 1 mM ATP",inhibited by the inhibitors BeF3^− and NaVO4^−
NCCCNCCCCNCCCN [spermine],ATPase stimulation,[2],ATPase activity of purified Ypk9 is stimulated by the polyamine spermine (SPM)
same,cryo-EM structure (E2.Pi-SPM 3.5 Å; E2.Pi-AlF/SPM 3.4 Å; E2P* 3.7 Å),[3],"The cleft harbors an additional, elongated density compatible with the presence of SPM"

# Reference: PMC8233418, “Structure and transport mechanism of P5B-ATPases” (Nature Communications, 2021)
